Assay results from ChEMBL document CHEMBL3400123, “Discovery of 1,3-dihydro-2,1,3-benzothiadiazole 2,2-dioxide analogs as new RORC modulators” (Bioorg Med Chem Lett, 2015).
Values after ≈ are worked out from the molar mass of the structure shown.

Assay: Solubility in pH 6.8 buffer by high throughput solubility assay
Format: physicochemical

| solubility [µg/mL] | SMILES |
| --- | --- |
| 0.45 (≈ 0.796 µM) | O=C(CCCN1c2ccccc2N(Cc2ccc(C(O)(C(F)(F)F)C(F)(F)F)cc2)S1(=O)=O)N1CCCC1 |
| 0.6 (≈ 1.28 µM) | CCC(CC)c1ccc(CN2c3ccccc3N(CCCC(=O)N3CCCC3)S2(=O)=O)cc1 |
| 5.7 (≈ 11.5 µM) | O=C(CCCN1c2ccccc2N(Cc2ccc(C(O)C(F)(F)F)cc2)S1(=O)=O)N1CCCC1 (stereo not drawn) |
